Source: PMC5049494, “Nitrotriazole-based acetamides and propanamides with broad spectrum antitrypanosomal activity” (European Journal of Medicinal Chemistry, 2016)

System: L. donovani axenic, strain MHOM-ET-67/L82 amastigotes
Test: In vitro activity against L. donovani
Type: cell-based
Conditions: L. donovani
Protocol: (§3) The concentration of compound that inhibits parasite growth by 50% (IC50) was calculated from dose response curves for each parasite (Table 1). In addition, compounds were tested for toxicity in L6 rat skeletal myoblasts, the host cells for T. cruzi amastigotes, in order to calculate a selectivity index for each parasite [SI = IC50L6/IC50parasite]
(§4) In vitro activity against T. cruzi, T. b. rhodesiense, L. donovani and cytotoxicity assessment using L6 cells (rat skeletal myoblasts) was determined using a 96-well plate format as previously described [37]. Data were analyzed with the graphic program Softmax Pro (Molecular Devices, Sunnyvale, CA, USA), which calculated IC50 values by linear regression from the sigmoidal dose inhibition curves.

Row | Structure (SMILES) | antileishmanial activity class (TDR criteria)
1 | O=C(CCn1cnc([N+](=O)[O-])n1)Nc1cc(-c2ccc(Cl)cc2)no1 [Compound 14, N-(3-(4-chlorophenyl)isoxazol-5-yl)-3-(3-nitro-1H-1,2,4-triazol-1-yl)propanamide] | moderately active (‘moderate activity’ (IC50 between 1.0 and 6.0 μM))
2 | O=C(Cn1cnc([N+](=O)[O-])n1)Nc1cc(-c2ccc(Cl)cc2)no1 [Compound 15, N-(3-(4-chlorophenyl)isoxazol-5-yl)-2-(3-nitro-1H-1,2,4-triazol-1-yl)acetamide] | inactive

Same assay, conditions: Leishmania donovani; L. donovani axenic amastigotes MHOM-ET-67/L82; means of 2 to 3 measurements, SD < 5%; read-out: L.d. IC50

Row | Structure (SMILES) | IC50 [µM]
3 | O=C(CCn1cnc([N+](=O)[O-])n1)Nc1cc(-c2ccc(Cl)cc2)no1 [Compound 14, N-(3-(4-chlorophenyl)isoxazol-5-yl)-3-(3-nitro-1H-1,2,4-triazol-1-yl)propanamide] | 2.95
4 | O=C(Cn1cnc([N+](=O)[O-])n1)Nc1cc(-c2ccc(Cl)cc2)no1 [Compound 15, N-(3-(4-chlorophenyl)isoxazol-5-yl)-2-(3-nitro-1H-1,2,4-triazol-1-yl)acetamide] | 12.5

System: bloodstream form T.b. brucei wild type
Test: T. brucei antiproliferating assay, wild type
Type: cell-based
Conditions: Trypanosoma brucei, read-out: IC50 value T.b. brucei Wild type, bloodstream form; means from 4 experiments ± SD
Protocol: The BSF of T. brucei parasites were seeded at 1 × 10^3 mL^−1 in 200 μL of growth medium containing different concentrations of nitroheterocycle. Where appropriate, induction of the TbNTR was carried out by adding tetracycline (1 μg/mL). After incubation for 3 days at 37 °C, 20 μL of Alamar blue was added to each well and the plates incubated for a further 16 h. The cell density of each culture was determined as described before and the IC50 established.

Row | Structure (SMILES) | IC50 [µM]
5 | O=C(CCn1cnc([N+](=O)[O-])n1)Nc1cc(-c2ccc(Cl)cc2)no1 [Compound 14, N-(3-(4-chlorophenyl)isoxazol-5-yl)-3-(3-nitro-1H-1,2,4-triazol-1-yl)propanamide] | 0.27 ± 0.05
6 | O=C(Cn1cnc([N+](=O)[O-])n1)Nc1cc(-c2ccc(Cl)cc2)no1 [Compound 15, N-(3-(4-chlorophenyl)isoxazol-5-yl)-2-(3-nitro-1H-1,2,4-triazol-1-yl)acetamide] | 8.65 ± 0.49

System: T.b. rhodesiense, strain STIB 900 trypomastigotes
Test: In vitro activity against T. b. rhodesiense
Type: cell-based
Conditions: T. b. rhodesiense
Protocol: (§1) Compounds in Table 1 were screened for anti-parasitic activity against three trypanosomatids: T. cruzi, T. b. rhodesiense and Leishmania donovani and compared with previously made analogs shown in orange and designated with a. […] In addition, compounds were tested for toxicity in L6 rat skeletal myoblasts, the host cells for T. cruzi amastigotes, in order to calculate a selectivity index for each parasite [SI = IC50L6/IC50parasite] (Table 1). The TDR (Special Programme for Research and Training in Tropical Diseases, World Health Organization) criteria were adopted to interpret antiparasitic activity and selectivity.
(§2) In vitro activity against T. cruzi, T. b. rhodesiense, L. donovani and cytotoxicity assessment using L6 cells (rat skeletal myoblasts) was determined using a 96-well plate format as previously described. Data were analyzed with the graphic program Softmax Pro (Molecular Devices, Sunnyvale, CA, USA), which calculated IC50 values by linear regression from the sigmoidal dose inhibition curves.

Row | Structure (SMILES) | anti-HAT activity class (TDR criteria)
7 | O=C(CCn1cnc([N+](=O)[O-])n1)Nc1cc(-c2ccc(Cl)cc2)no1 [Compound 14, N-(3-(4-chlorophenyl)isoxazol-5-yl)-3-(3-nitro-1H-1,2,4-triazol-1-yl)propanamide] | moderately active (IC50 between 0.5 and 6.0 μM)
8 | O=C(Cn1cnc([N+](=O)[O-])n1)Nc1cc(-c2ccc(Cl)cc2)no1 [Compound 15, N-(3-(4-chlorophenyl)isoxazol-5-yl)-2-(3-nitro-1H-1,2,4-triazol-1-yl)acetamide] | inactive

Same assay, conditions: Trypanosoma brucei; T.b. rhodesiense STIB 900 trypomastigotes; means of 2 to 3 measurements, SD < 5%; read-out: T.b.r. IC50

Row | Structure (SMILES) | IC50 [µM]
9 | O=C(CCn1cnc([N+](=O)[O-])n1)Nc1cc(-c2ccc(Cl)cc2)no1 [Compound 14, N-(3-(4-chlorophenyl)isoxazol-5-yl)-3-(3-nitro-1H-1,2,4-triazol-1-yl)propanamide] | 0.651
10 | O=C(Cn1cnc([N+](=O)[O-])n1)Nc1cc(-c2ccc(Cl)cc2)no1 [Compound 15, N-(3-(4-chlorophenyl)isoxazol-5-yl)-2-(3-nitro-1H-1,2,4-triazol-1-yl)acetamide] | 15.1

System: not listed separately
Test: Cytotoxicity in the host L6 cells
Type: cell-based, rat
Conditions: rat, L6 cells (rat skeletal myoblasts); cytotoxicity in host L6 cells; read-out: Cyt. L6 IC50
Protocol: as §1, §2

Row | Structure (SMILES) | IC50 [µM]
11 | O=C(CCn1cnc([N+](=O)[O-])n1)Nc1cc(-c2ccc(Cl)cc2)no1 [Compound 14, N-(3-(4-chlorophenyl)isoxazol-5-yl)-3-(3-nitro-1H-1,2,4-triazol-1-yl)propanamide] | 179
12 | O=C(Cn1cnc([N+](=O)[O-])n1)Nc1cc(-c2ccc(Cl)cc2)no1 [Compound 15, N-(3-(4-chlorophenyl)isoxazol-5-yl)-2-(3-nitro-1H-1,2,4-triazol-1-yl)acetamide] | 112

System: T. cruzi, strain Tulahuen C4 amastigotes
Test: In vitro activity against T. cruzi
Type: cell-based
Conditions: Trypanosoma cruzi; T. cruzi Tulahuen C4 amastigotes; means of 2 to 3 measurements, SD < 5%; read-out: T. c. IC50
Protocol: as §3, §4

Row | Structure (SMILES) | IC50 [nM]
13 | O=C(CCn1cnc([N+](=O)[O-])n1)Nc1cc(-c2ccc(Cl)cc2)no1 [Compound 14, N-(3-(4-chlorophenyl)isoxazol-5-yl)-3-(3-nitro-1H-1,2,4-triazol-1-yl)propanamide] | 251
14 | O=C(Cn1cnc([N+](=O)[O-])n1)Nc1cc(-c2ccc(Cl)cc2)no1 [Compound 15, N-(3-(4-chlorophenyl)isoxazol-5-yl)-2-(3-nitro-1H-1,2,4-triazol-1-yl)acetamide] | 1530

Same assay, conditions: fold antichagasic potency relative to Bnz (T. cruzi IC50 ratio)

Row | Structure (SMILES) | Bnz/comp
15 | O=C(CCn1cnc([N+](=O)[O-])n1)Nc1cc(-c2ccc(Cl)cc2)no1 [Compound 14, N-(3-(4-chlorophenyl)isoxazol-5-yl)-3-(3-nitro-1H-1,2,4-triazol-1-yl)propanamide] | 9
16 | O=C(Cn1cnc([N+](=O)[O-])n1)Nc1cc(-c2ccc(Cl)cc2)no1 [Compound 15, N-(3-(4-chlorophenyl)isoxazol-5-yl)-2-(3-nitro-1H-1,2,4-triazol-1-yl)acetamide] | 1.4

System: bloodstream form T.b. brucei recombinant parasites expressing wild type (-tet) or elevated (+tet) levels of TbNTR
Test: microbe, parasite or virus in culture
Type: cell-based
Conditions: Trypanosoma brucei, read-out: IC50 value T.b. brucei TbNTR (+tet)
Protocol: The BSF of T. brucei parasites were seeded at 1 × 10^3 mL^−1 in 200 μL of growth medium containing different concentrations of nitroheterocycle. Where appropriate, induction of the TbNTR was carried out by adding tetracycline (1 μg/mL). After incubation for 3 days at 37 °C, 20 μL of Alamar blue was added to each well and the plates incubated for a further 16 h. The cell density of each culture was determined as described before [20] and the IC50 established.

Row | Structure (SMILES) | IC50 [nM]
17 | O=C(CCn1cnc([N+](=O)[O-])n1)Nc1cc(-c2ccc(Cl)cc2)no1 [Compound 14, N-(3-(4-chlorophenyl)isoxazol-5-yl)-3-(3-nitro-1H-1,2,4-triazol-1-yl)propanamide] | 290 ± 20
18 | O=C(Cn1cnc([N+](=O)[O-])n1)Nc1cc(-c2ccc(Cl)cc2)no1 [Compound 15, N-(3-(4-chlorophenyl)isoxazol-5-yl)-2-(3-nitro-1H-1,2,4-triazol-1-yl)acetamide] | 1230 ± 60

Same assay, conditions: Trypanosoma brucei, read-out: IC50 value T.b. brucei TbNTR (-tet)

Row | Structure (SMILES) | IC50 [nM]
19 | O=C(CCn1cnc([N+](=O)[O-])n1)Nc1cc(-c2ccc(Cl)cc2)no1 [Compound 14, N-(3-(4-chlorophenyl)isoxazol-5-yl)-3-(3-nitro-1H-1,2,4-triazol-1-yl)propanamide] | 910 ± 30
20 | O=C(Cn1cnc([N+](=O)[O-])n1)Nc1cc(-c2ccc(Cl)cc2)no1 [Compound 15, N-(3-(4-chlorophenyl)isoxazol-5-yl)-2-(3-nitro-1H-1,2,4-triazol-1-yl)acetamide] | 13300 ± 1400

System: purified his-tagged recombinant TbNTR
Test: Enzymatic activity with type I TbNTR
Type: biochemical, T. brucei
Conditions: substrate 100 μM, NADH 100 μM
Protocol: Enzyme specific activity was measured as oxidized NADH (nmol) per min per mg of protein. […] As we have reported before with other classes of 3-nitrotriazole-based antitrypanosomal compounds, no correlation between anti-HAT activity and TbNTR specific activity was observed, [13], [15], [16], [17], [18].
Recombinant TbNTR was prepared and assayed as previously described, [39]. The specific activity of purified his-tagged TbNTR was assessed spectrophotometrically at 340 nm using various nitrotriazole substrates (100 μM) and NADH (100 μM) and expressed as nmol NADH oxidized min^−1 mg^−1 of enzyme.

Row | Structure (SMILES) | substrate of TbNTR / rate of metabolism
21 | O=C(CCn1cnc([N+](=O)[O-])n1)Nc1cc(-c2ccc(Cl)cc2)no1 [Compound 14, N-(3-(4-chlorophenyl)isoxazol-5-yl)-3-(3-nitro-1H-1,2,4-triazol-1-yl)propanamide] | equivalent rates
22 | O=C(Cn1cnc([N+](=O)[O-])n1)Nc1cc(-c2ccc(Cl)cc2)no1 [Compound 15, N-(3-(4-chlorophenyl)isoxazol-5-yl)-2-(3-nitro-1H-1,2,4-triazol-1-yl)acetamide] | equivalent rates
